The source of these data is PMC5602572, “New carboxamide derivatives bearing benzenesulphonamide as a selective COX-II inhibitor: Design, synthesis and structure-activity relationship” (PLoS ONE, 2017).

Structures are written as SMILES.

Data set [1] concerns carrageenan induced rat paw edema. The data set is described as follows: carrageenan-induced rat paw edema bioassay. Format: in vivo. To be noted: % inhibition of carrageenan induced rat paw edema, intraperitoneal; for Anti-inflammatory activity, 0.5 h (%): 0.5 h after treatment; for Anti-inflammatory activity, 1 h (%): 1 h after treatment; for Anti-inflammatory activity, 2 h (%): 2 h after treatment; for Anti-inflammatory activity, 3 h (%): 3 h after treatment. The method, then:
Male albino rats weighing 300 g where purchased from the Department of Zoology and Environmental Biology, University of Nigeria, Nsukka and kept at room temperature in a light controlled animal house. They were fasted with free access to water at least 12 h prior to the experiments. […] The positive control received celecoxib while the negative control received only the vehicle. Edema was produced by injecting 0.2 mL of a solution of 1% carrageenan in the hind paw. The rats were injected intraperitoneally with 1 mL suspension in 0.5% methylcellulose of the tested compounds and reference drug. Paw volume was measured by water displacement with a plethysmometer (UGO BASILE) before, 30 min, 1 h, 2 h and 3 h after treatment. The percentage was calculated by the following equation [25].
Anti-inflammatory activity (%) = (1-D/C)[…], where D represents the difference in paw volume before and after drug administration to the rats and C represents the difference of volume in the control groups. The approval for the use of animal was obtained from the University of Nigeria committee on experimental animal use. No sign of death was observed during the experiment.

Another data set has as its target T1, COX-1 (Ovis aries, UniProt P05979).
T1 construct: purchased Cayman chemicals, USA
T1 sequence (P05979 25-600): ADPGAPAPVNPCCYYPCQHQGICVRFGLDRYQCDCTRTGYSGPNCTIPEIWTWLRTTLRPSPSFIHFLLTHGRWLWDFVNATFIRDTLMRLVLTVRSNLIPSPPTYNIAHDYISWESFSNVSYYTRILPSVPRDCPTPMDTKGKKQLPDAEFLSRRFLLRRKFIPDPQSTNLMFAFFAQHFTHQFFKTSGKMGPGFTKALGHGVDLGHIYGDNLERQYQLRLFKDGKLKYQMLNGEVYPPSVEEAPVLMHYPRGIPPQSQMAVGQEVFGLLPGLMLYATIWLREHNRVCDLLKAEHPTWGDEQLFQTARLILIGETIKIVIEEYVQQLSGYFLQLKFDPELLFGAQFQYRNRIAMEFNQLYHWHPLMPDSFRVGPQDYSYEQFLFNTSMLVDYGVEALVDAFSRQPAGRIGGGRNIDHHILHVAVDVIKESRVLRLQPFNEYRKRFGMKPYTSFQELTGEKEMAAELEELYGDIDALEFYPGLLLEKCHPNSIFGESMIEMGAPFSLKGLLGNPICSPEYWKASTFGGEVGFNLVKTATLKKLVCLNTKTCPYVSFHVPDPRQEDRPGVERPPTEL
As to the kind of experiment: In vitro cyclooxygenase inhibitory assay (Cayman colorimetric COX (ovine) inhibitor screening kit), COX-1. Conditions: concentration of 2.0 μM; read-out: COX-1 (%) inhibition. Format: biochemical. The method, then: (§1) The calculations were performed as per the kit guidelines.

The nature of data set [2]: Determination of LD50 in mice. To be noted: mouse, in vivo, ip; male mice, intraperitoneal, observation 72 h. The method, then:
Male mice were divided into various groups and test compounds were administered in various doses intraperitoneally. […] All behavioral changes and deaths during the observation periods were recorded. The percentage of death at each dose level was then calculated, converted to probits and the LD50 (μM/kg) values were calculated. To observe the health status of the mice, they were monitored 4 times a day. […] For the purpose of ameliorating the suffering of the dying mice, CO2 euthanasia was applied. All the dead mice were disposed in bio-safety containers in accordance with local standard protocols. The mortality rate in each group was calculated according to the formula: Mortality rate(%)=(the number of dead mice/the number of mice in the group)×100.

The target of the next data set is T2, COX-2 (Ovis aries, UniProt P79208).
T2 construct: purchased Cayman chemicals, USA
T2 sequence (P79208 17-603): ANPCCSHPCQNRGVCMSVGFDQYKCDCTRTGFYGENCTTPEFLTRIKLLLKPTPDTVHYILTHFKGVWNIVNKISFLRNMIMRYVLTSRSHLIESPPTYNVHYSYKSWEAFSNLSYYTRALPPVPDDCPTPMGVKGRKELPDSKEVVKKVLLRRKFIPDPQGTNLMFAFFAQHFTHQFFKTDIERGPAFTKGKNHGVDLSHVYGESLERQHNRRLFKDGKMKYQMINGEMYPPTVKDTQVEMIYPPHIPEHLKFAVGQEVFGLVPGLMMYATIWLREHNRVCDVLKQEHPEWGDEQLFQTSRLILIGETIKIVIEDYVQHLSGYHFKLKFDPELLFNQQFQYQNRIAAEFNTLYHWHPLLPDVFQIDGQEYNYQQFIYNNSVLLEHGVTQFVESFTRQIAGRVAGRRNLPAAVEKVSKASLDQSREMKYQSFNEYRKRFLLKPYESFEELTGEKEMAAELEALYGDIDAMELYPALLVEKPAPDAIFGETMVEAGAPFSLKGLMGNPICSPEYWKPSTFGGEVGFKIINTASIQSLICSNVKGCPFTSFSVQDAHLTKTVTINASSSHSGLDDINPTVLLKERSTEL
The data set is described as follows: In vitro cyclooxygenase inhibitory assay (Cayman colorimetric COX (ovine) inhibitor screening kit), COX-2. Format: biochemical. To be noted: for inhibition at 2 µM: concentration of 2.0 μM, read-out: COX-2 (%) inhibition; for S I (selectivity COX-2/COX-1): ratio of % inhibition COX-2/COX-1 at 2.0 μM; for selectivity for COX-2 (in words): from COX-2/COX-1 % inhibition at 2.0 μM. The method, then: as §1

A word on the inhibition: it is the relative decrease from the control value, in per cent. What is called LD50 is the dose expected to kill half of the subjects tested. A high value points to lower toxicity. On to `Cc1ccc(S(=O)(=O)N(C(=O)c2ccccc2)[C@@H](Cc2cc3ccccc3[nH]2)C(=O)Nc2cc(C)ccn2)cc1` [Compound 7k, (2S)-3-(1H-indol-2-yl)-2-[N-(4-methylbenzenesulfonyl)-1-phenylformamido]-N-(4-methylpyridin-2-yl)propanamide], for which, in data set [1], the “Anti-inflammatory activity, 0.5 h (%)” value is given as 42.12%; the “Anti-inflammatory activity, 1 h (%)” value was found to be 56.12%; the “Anti-inflammatory activity, 2 h (%)” value is given as 70.89%. The inhibition at 2 µM at COX-1 came to 3%. In data set [2], this molecule yielded an LD50 at 72 h of 9.2 µmol/kg. Moreover, on COX-2, the inhibition at 2 µM was determined as 56% and the “S I (selectivity COX-2/COX-1)” value is recorded as 18.67.
As to `Cc1ccc(S(=O)(=O)N(C(=O)c2ccccc2)[C@@H](CC(C)C)C(=O)Nc2cc(C)ccn2)cc1` [Compound 7l, (2S)-4-Methyl-2-[N-(4-methylbenzenesulfonyl)-1-phenylformamido]-N-(4-methylpyridin-2-yl) pentanamide], in data set [1], the “Anti-inflammatory activity, 0.5 h (%)” value came out at 26.15%; the “Anti-inflammatory activity, 1 h (%)” value is 19.88%; the “Anti-inflammatory activity, 2 h (%)” value is given as 18.28%; the “Anti-inflammatory activity, 3 h (%)” value is 16.67%. Moreover, the inhibition at 2 µM at COX-1 came out at 20%. The 50% lethal dose (LD50) at 72 h in data set [2] is 12.5 µmol/kg. Also, at COX-2, the inhibition at 2 µM was 19%, the “selectivity for COX-2 (in words)” value is on record as “non-selective” and the “S I (selectivity COX-2/COX-1)” value came out at 0.95.
Take `Cc1ccc(S(=O)(=O)N(C(=O)c2ccccc2)[C@H](C(=O)Nc2cc(C)ccn2)C(C)C)cc1` [Compound 7n, (2S)-3-Methyl-2-[N-(4-methylbenzenesulfonyl)-1-phenylformamido]-N-(4-methylpyridin-2-yl) butanamide]: in data set [1], the “Anti-inflammatory activity, 0.5 h (%)” value is recorded as 21.54%; the “Anti-inflammatory activity, 1 h (%)” value came to 16.47%; the “Anti-inflammatory activity, 2 h (%)” value is 10.56%; the “Anti-inflammatory activity, 3 h (%)” value worked out at 3.09%. The inhibition at 2 µM on COX-1 came out at 32%. The molecule further registered an LD50 at 72 h in data set [2] of 20.1 µmol/kg. At COX-2, the inhibition at 2 µM amounted to 48%, the “selectivity for COX-2 (in words)” value is reported as “non-selective” and the “S I (selectivity COX-2/COX-1)” value is listed as 1.50.
Take `CCC(C)[C@@H](C(=O)Nc1cc(C)ccn1)N(C(=O)c1ccccc1)S(=O)(=O)c1ccc([N+](=O)[O-])cc1` (stereo partly drawn) [Compound 7e, (2S)-3-Methyl-N-(4-methylpyridin-2-yl)-2-[N-(4-nitrobenzenesulfonyl)-1-phenylformamido]pentanamide]: in data set [1], the “Anti-inflammatory activity, 0.5 h (%)” value came out at 26.15%; the “Anti-inflammatory activity, 1 h (%)” value worked out at 25.88%; the “Anti-inflammatory activity, 2 h (%)” value was 19.38%; the “Anti-inflammatory activity, 3 h (%)” value was 16.05%. Besides, the inhibition at 2 µM on COX-1 is 4%. This molecule also came in with a median lethal dose (LD50) at 72 h in data set [2] of 13.1 µmol/kg. At COX-2, the inhibition at 2 µM is 17% and the “S I (selectivity COX-2/COX-1)” value worked out at 4.25.
Take `Cc1ccnc(NC(=O)[C@H](C(C)C)N(C(=O)c2ccccc2)S(=O)(=O)c2ccc([N+](=O)[O-])cc2)c1` [Compound 7f, (2S)-3-Methyl-N-(4-methylpyridin-2-yl)-2-[N-(4-nitrobenzenesulfonyl)-1-phenylformamido]butanamide]: in data set [1], the “Anti-inflammatory activity, 0.5 h (%)” value is recorded as 24.62%; the “Anti-inflammatory activity, 1 h (%)” value is given as 17.65%; the “Anti-inflammatory activity, 2 h (%)” value is 14.84%; the “Anti-inflammatory activity, 3 h (%)” value is 1.85%. Further, the inhibition at 2 µM on COX-1 turned out to be 15%. This molecule gave an LD50 at 72 h in data set [2] of 15.8 µmol/kg. In addition, at COX-2, the inhibition at 2 µM worked out at 54% and the “S I (selectivity COX-2/COX-1)” value worked out at 3.6.
In the case of `Cc1ccnc(NC(=O)[C@H](CC(C)C)N(C(=O)c2ccccc2)S(=O)(=O)c2ccc([N+](=O)[O-])cc2)c1` [Compound 7d, (2S)-4-Methyl-N-(4-methylpyridin-2-yl)-2-[N-(4-nitrobenzenesulfonyl)-1-phenylformamido]pentanamide], in data set [1], the “Anti-inflammatory activity, 0.5 h (%)” value is 52.31%; the “Anti-inflammatory activity, 1 h (%)” value was 17.65%; the “Anti-inflammatory activity, 2 h (%)” value was found to be 10.54%; the “Anti-inflammatory activity, 3 h (%)” value turned out to be 10.15%. Further, the inhibition at 2 µM on COX-1 stood at 10%. The molecule further returned an LD50 at 72 h in data set [2] of 12.6 µmol/kg. On COX-2, the inhibition at 2 µM came out at 20% and the “S I (selectivity COX-2/COX-1)” value was 2.00.
